According to patent publication US20200375919A1, “BONE GRAFT MATERIAL WITH 4-HEXYLRESORCINOL THAT AFFECTS BONE FORMATION” (MANTIZ LOGITECH CO., LTD., priority 2019, published 2020):

Assays:
human primary cells = test: MTS measuring of cytotoxicity and cell viability; format: cell-based; details: FIG. 1
From the text: MTS Measuring Method of Cytotoxicity and Cell Viability
Mitochondrial NADH-dehydrogenase forms formazan having a color by reducing a tetrazolium salt such as MTS. Therefore, as the number of cells which express dehydrogenase, i.e., living cells is proportional to formation of formazan, the living cells can be quantified.
After seeding human primary cells, adhering the seeded-human primary cells to a cell plate, and treating the seeded-human primary cells adhered to the cell plate with an MTS Cell Proliferation Assay Kit (ab197010, UK, abcam) every 24 hours and 48 hours, resulting materials were confirmed by using a wavelength of 490 nm.

osteoblast-like cells [1] = test: Alkaline phosphatase activity (early-stage osteoblastic differentiation); format: cell-based, human; details: 0.0194% (=10^-4M) compared with 3% and control; seventh day; FIG. 2
Protocol: Method of Measuring Cell Culture and Alkaline Phosphatase Activities
In vitro tests were performed by using osteoblast-like cells through a human primary cell culture. A cell survival environment was progressed by supplementing DMEM (Dulbecco Modified Eagle's Medium)-high glucose (PAA Laboratories, Pasching, Austria) and 20% fetal bovine serum (PAA, Canada) and comprising 1% penicillin/streptomycin (100×), and media were exchanged every other day. Resulting materials were confirmed on the seventh day of differentiation experiments by using alkaline phosphatase (Sigma, St. Louis, Mo., USA).

osteoblast-like cells [2] = test: Alizarin Red S staining (late osteoblast differentiation, calcium accumulation); format: cell-based, human; details: 0.0194% (=10^-4M) compared with 3% and control; FIG. 3
Protocol: Method of Measuring Bone Differentiation Degrees by Dyeing Calcium Accumulation of Bone-Differentiated Cells (Alizarin Red S Staining)
In vitro tests were performed by using osteoblast-like cells through a human primary cell culture. A cell survival environment was progressed by supplementing DMEM (Dulbecco Modified Eagle's Medium)-high glucose (PAA Laboratories, Pasching, Austria) and 20% fetal bovine serum (PAA, Canada) and comprising 1% penicillin/streptomycin (100×), and media were exchanged every other day. Resulting materials were confirmed on the seventh day of differentiation experiments.

ALP, Runx2, Osx, Ocn = test: mRNA expression of osteoblast differentiation markers; format: cell-based; details: 0.0194% (=10^-4M) compared with 3% or control; FIGS. 4A to 4D
ALP and Runx2 = test: Western blot protein level; format: cell-based; details: 0.0194% compared with 3% or control; FIG. 5
osteoclasts = test: Differentiation of osteoclasts (TRAP staining); format: cell-based, human; details: FIGS. 6A and 6B
Protocol: Method of Measuring Differentiation Abilities of Osteoclasts (TRAP Staining)
In vitro tests were performed by using osteoclasts through a human bone marrow derived macrophages culture. A cell survival environment was progressed by supplementing DMEM (Dulbecco Modified Eagle's Medium)-high glucose (PAA Laboratories, Pasching, Austria) and 20% fetal bovine serum (PAA, Canada) and comprising 1% penicillin/streptomycin (100×), and media were exchanged once a day. Resulting materials were confirmed on the fifth day of differentiation experiments through TRAP staining.

CCCCCCc1ccc(O)cc1O [4-hexylresorcinol]
cell proliferation, low versus high concentration (human primary cells; 0.0194% compared with 3%): cell proliferation is more active | cell viabilities versus control (human primary cells; 4-hexylresorcinol concentrations of 3% and 0.0194% (=10^-4M)): higher than a control | ALP activity (osteoblast-like cells [1]): high ALP activity | calcification (Alizarin Red S staining) (osteoblast-like cells [2]): high calcification | mRNA expression level of ALP, Runx2, Osx, Ocn (ALP, Runx2, Osx, Ocn): larger expression level | ALP and Runx2 protein expression levels (western blot) (ALP and Runx2): higher | effect on differentiation of osteoclasts, low versus high concentration (osteoclasts; 0.0194% compared with 3%): more excellent | differentiation of osteoclasts (osteoclasts; treating 4-hexylresorcinol, fifth day): inhibited
